Assay results reported in patent US20250206763A1, “ENPP1 INHIBITOR” (SHANGHAI QILU PHARMACEUTICAL RESEARCH AND DEVELOPMENT …, priority 2022, published 2025).

Tests used:
[1] = tested on: MDA-MB-231 CM-THP1 (THP1-Dual Cells NF-κB-SEAP and IRF-Lucia luciferase Reporter Monocytes); assay: Cell Activity Test 2: MDA-MB-231 cells treated with compound and cGAMP, supernatant transferred to THP1-Dual IRF-Lucia luciferase reporter cells; type: cell-based; conditions: 30 minutes pretreatment, cGAMP 24 hours, supernatant on THP1-Dual reporter cells 24 hours, QUANTI-Luc
Description: THP1-Dual Cells NF-κB-SEAP and IRF-Lucia luciferase Reporter Monocytes cells (Invivogen, thpd-nfis), MDA-MB-231 cells (ATCC, CRM-HTB-26), RPMI-1640 medium (Gibco, 11875-093), FBS (Gibco, 10099), penicillin-streptomycin (Gibco, 15070063), HEPES (ThermoFisher, 15630080), L-glutamine (ThermoFisher, 25030081), Normocin-Antimicrobial Reagent (InVivoGen, ant-nr-1), Zeocin (Invivogen, ant-zn-1), Blasticidin (Invivogen, ant-bl-1), Mammalian (non-canonical) CDN, cyclic [G(2′,5′)pA(3′,5′)p] (referred to as cGAMP hereinafter, Invivogen, tlrl-nacga23-1), QUANTI-Luc (InvivoGen, rep-qlc2), Multimode Plate Reader (PerkinElmer, EnVision 2105 Alpha 680 nm Laser), and conventional cell culture consumables (NEST). […]
An appropriate amount of MDA-MB-231 cells in logarithmic growth phase was taken and centrifuged at 300×g for 5 minutes, and the supernatant was removed. The cells were re-suspended with MDA-MB-231 cell growth medium and counted, and the cell density was adjusted to 6×10^4 cells/mL. […]
After 24 hours, the resulting was centrifuged at 300×g for 5 minutes, 10 μL of cell supernatant was transferred to a new 384-well plate with a white opaque bottom, followed by the addition of 25 μL of QUANTI-Luc reaction solution to each well. They were shaken well for 1 minute away from light and the plate was read immediately.

[2] = tested on: MDA-MB-231 cells; assay: Cell Activity Test 1: pNP-AMP hydrolysis on MDA-MB-231 cells, absorbance at 405; type: cell-based; conditions: Homo sapiens, 1 hour pre-incubation, 0.25 mM pNP-AMP, 5 hours of reaction, read-out: MDA-MB-231 cell biochemical IC50
Protocol: MDA-MB-231 cells were digested and suspended, the cell density was adjusted to 4.5×10^5 cells per milliliter, and the cells were seeded in 384 microtiter plates at 50 microliters per well. The cells were incubated in an incubator at 37° C. with […] for 24 h. After 24 h, the cell plates were taken out, the cell culture medium was pipetted and washed once with 50 μL of PBS. Then 20 μL of 1640 medium free of phenol red and serum was added per well, and 2× of compound was added with Tecan, with 1:3 dilution. The compounds were pre-incubated for 1 hour. Afterwards, the reaction was initiated by adding a substrate mixture (50 μL system, 0.5 mM pNP-AMP dissolved in 1640 medium free of phenol red and serum) at a final substrate concentration of 0.25 mM. Absorbance values were read at 405 nm in a microplate reader after 5 hours of reaction, 4-Parameter Logistic Curve model was applied to calculate the […] of the compounds, taking positive compounds as 100% inhibition and DMSO as 0% inhibition.

[3] = target: T1, human ENPP1 (Homo sapiens, UniProt P22413); assay: In vitro enzyme activity assay: human ENPP1 enzymatic assay (cGAMP), AMP-Glo; type: biochemical; conditions: substrate cGAMP, AMP-Glo detection
T1 construct: purchased Biovendor AP-18-081; host or cells: HEK293
T1 sequence (P22413 1-925): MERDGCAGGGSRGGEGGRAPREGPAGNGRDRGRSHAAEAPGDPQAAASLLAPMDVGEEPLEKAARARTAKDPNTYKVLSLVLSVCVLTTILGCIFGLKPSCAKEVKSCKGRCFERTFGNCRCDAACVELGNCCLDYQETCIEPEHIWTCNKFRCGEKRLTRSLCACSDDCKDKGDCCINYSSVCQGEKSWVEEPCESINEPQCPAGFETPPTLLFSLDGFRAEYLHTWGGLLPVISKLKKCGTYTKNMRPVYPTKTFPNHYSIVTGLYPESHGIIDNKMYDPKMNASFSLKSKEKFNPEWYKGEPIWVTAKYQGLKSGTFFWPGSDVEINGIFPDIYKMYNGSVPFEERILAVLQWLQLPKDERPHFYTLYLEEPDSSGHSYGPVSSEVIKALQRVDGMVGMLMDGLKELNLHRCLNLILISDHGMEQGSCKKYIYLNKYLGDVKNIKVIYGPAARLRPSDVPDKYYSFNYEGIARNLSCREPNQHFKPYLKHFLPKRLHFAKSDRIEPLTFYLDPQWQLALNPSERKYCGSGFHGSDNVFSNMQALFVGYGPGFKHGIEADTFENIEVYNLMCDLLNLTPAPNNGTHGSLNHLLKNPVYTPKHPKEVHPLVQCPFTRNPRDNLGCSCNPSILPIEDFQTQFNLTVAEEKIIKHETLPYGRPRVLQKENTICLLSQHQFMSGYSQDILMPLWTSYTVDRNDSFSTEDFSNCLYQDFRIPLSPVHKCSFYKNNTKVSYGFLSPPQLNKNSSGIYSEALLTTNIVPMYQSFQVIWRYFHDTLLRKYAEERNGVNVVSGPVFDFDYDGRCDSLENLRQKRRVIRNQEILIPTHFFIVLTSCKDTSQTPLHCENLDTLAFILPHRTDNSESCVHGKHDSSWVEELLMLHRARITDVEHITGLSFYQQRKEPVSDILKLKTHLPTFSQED
Protocol: AMP-Glo Assay Kit (PROMEGA, V5012), ENPP-1-IN-1 (MCE, HY-129490), white opaque 384-well plate (Perkin Elmer, 6008289), Mammalian (non-canonical) CDN, cyclic[g(2′,5′)pA(3′,5′)p](referred to as cGAMP hereinafter, Invivogen, tlrl-nacga23-5), ENPP1 Protein Human HEK293 (Biovendor, AP-18-081).
• 1) Preparing 1× reaction buffer (Tris buffer), 1× enzyme buffer, and 1× substrate buffer; • 2) diluting the compounds using Echo550 and supplementing with DMSO; • 3) pre-loading 2.5 μL of enzyme solution on a reaction plate (adding 2.5 μL of buffer instead as negative control) and incubating it at room temperature; • 4) adding 2.5 μL of substrate solution to the system and incubating it at room temperature; • 5) adding 5 μL of AMP-Glo solution that has been allowed to cooled down to room temperature, centrifuging and reacting at room temperature, • 6) adding 10 μL of AMP Detection solution at room temperature, centrifuging and reacting at room temperature; and • 7) reading the plate using EnVision.

Structure (SMILES)	EC50 [1]	IC50 [2]	IC50 [3]
O=c1[nH]c2cnc3c4c(ccc3c2n1Cc1ccc(P(=O)(O)O)c(F)c1)OCO4 [Compound 1, (2-fluoro-4-((7-oxo-6,7-dihydro-8H-[1,3]dioxolo[4,5-h]imidazo[4,5-c]quinolin-8-yl)methyl)phenyl)phosphonic add]	3.5 nM	1.12 nM	< 10 nM
COc1ccc2c(ncc3[nH]c(=O)n(Cc4ccc(P(=O)(O)O)c(F)c4)c32)n1 [Control Compound, reference compound]	14.6 nM	9.78 nM	–
O=c1[nH]c2cnc3c4c(ccc3c2n1Cc1c(F)cc(P(=O)(O)O)cc1F)OCO4 [Compound 2, (3,5-difluoro-4-((7-oxo-6,7-dihydro-8H-[1,3]dioxolo[4,5-h]imidazo[4,5-c]quinolin-8-yl)methyl)phenyl)phosphonic acid]	–	–	< 10 nM
O=c1n(CCCF)c2cnc3c4c(ccc3c2n1Cc1ccc(P(=O)(O)O)c(F)c1)OCO4 [Compound 26]	–	–	< 10 nM
NS(=O)(=O)c1ccc(Cn2c(=O)[nH]c3cnc4c5c(ccc4c32)OCO5)nc1 [Compound 40]	–	–	< 10 nM
O=c1n(CC(F)(F)F)c2cnc3c4c(ccc3c2n1Cc1ccc(P(=O)(O)O)c(F)c1)OCO4 [Compound 23]	–	–	< 10 nM
